Experimental data taken from US20230357179A1, “RAF KINASE INHIBITORS AND METHODS OF USE THEREOF” (Deciphera Pharmaceuticals, LLC, priority 2021, published 2023).

What was measured:
A375 cells = assay: A375 cell proliferation assay (1), resazurin, 96-well; assay type: cell-based; details: Homo sapiens, A-375, inhibition of cell proliferation
Procedure, shortened: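 Viability was read by resazurin fluorescence at 540 nm excitation and 600 nm emission, using a 440 μM solution added for 5–6 h at the end of culture. IC50 came from the curve fit.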

A-Raf kinase = target: T1, A-Raf kinase (Homo sapiens, UniProt P10398, Y301D/Y302D); assay: Biochemical assay for A-Raf.1 (coupled pyruvate kinase/lactate dehydrogenase); details: read-out: ARAF.1 IC50
T1 construct: purchased Sigma
T1 sequence (P10398 with tags, fused parts or gaps Y301D/Y302D): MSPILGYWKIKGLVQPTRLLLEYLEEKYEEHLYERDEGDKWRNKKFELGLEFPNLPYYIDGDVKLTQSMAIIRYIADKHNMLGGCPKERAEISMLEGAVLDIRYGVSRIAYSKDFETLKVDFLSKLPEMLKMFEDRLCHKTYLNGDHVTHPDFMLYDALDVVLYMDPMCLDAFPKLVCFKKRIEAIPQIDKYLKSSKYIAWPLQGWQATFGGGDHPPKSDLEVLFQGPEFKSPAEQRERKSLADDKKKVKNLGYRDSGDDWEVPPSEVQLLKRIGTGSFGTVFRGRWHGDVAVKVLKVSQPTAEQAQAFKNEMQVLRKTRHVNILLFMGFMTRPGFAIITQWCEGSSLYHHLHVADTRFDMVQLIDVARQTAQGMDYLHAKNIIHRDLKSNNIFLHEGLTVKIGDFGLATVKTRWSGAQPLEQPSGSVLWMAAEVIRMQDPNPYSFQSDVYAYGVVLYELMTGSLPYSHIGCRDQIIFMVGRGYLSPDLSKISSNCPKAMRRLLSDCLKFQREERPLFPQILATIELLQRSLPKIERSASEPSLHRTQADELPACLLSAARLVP
Procedure, shortened: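 IC50 values came from four-parameter sigmoidal fits of percent inhibition, using rates over the 4 to 5 h window of continuous A340 readings (6 h, 30° C). The coupled PK/LDH system tracked NADH oxidation during 5.55 nM A-Raf activity on 30.1 nM MEK at 1 mM ATP, buffer pH 7.5.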

WM3928 cells = assay: WM3928 cell proliferation assay (1), resazurin, 96-well; assay type: cell-based; details: inhibition of cell proliferation
Description: WM3928 Cell Proliferation Assay (1)
WM3928 cells (#WM3928-01-0001) are obtained from Rockland Immunochemicals Inc (Gilbertsville, PA). Briefly, cells were grown in MCDB 153 medium (Sigma, #M7403, St. Louis, MO) supplemented with 20% Leibovitz's L-15 (ThermoFisher #11415-064, Waltham, MA), 2% heat inactivated fetal bovine serum (ThermoFisher, #A3840001, Waltham, MA), 5 μg/mL Insulin (Bovine Pancreas) (Sigma, #I0516, St. Louis, MO), 1.68 mM Calcium Chloride (Sigma, #C-34006, St. Louis, MO) and 1% Penicillin/Streptomycin/L-Glutamine (ThermoFisher #10378016, Waltham, MA) at 37° C., 5% CO2, and 95% humidity. Cells are expanded until reaching 70-95% confluency at which point they are subcultured or harvested for assay use. A serial dilution of test compound is dispensed into a 96-well black clear bottom plate in triplicate. Three thousand cells are added per well in 200 μL complete growth medium in the 96-well plate. Plates are incubated for 67-72 hours at 37° C., 5% CO2, and 95% humidity. At the end of the incubation, 40 μL of a 440 μM solution of resazurin (Sigma, #199303, St. Louis, MO) in PBS is added to each well of the plate and plates are incubated for an additional 6-7 hours at 37° C., 5% CO2, and 95% humidity. Plates are read on a Synergy2 or equivalent reader (Biotek, Winooski VT) using an excitation of 540 nm and an emission of 600 nm. Data is analyzed using Prism software (GraphPad, San Diego, CA) to calculate IC50 values.

Miapaca-2 cells = assay: MiaPaca-2 cell proliferation assay (1), resazurin, 96-well; assay type: cell-based; details: Homo sapiens, MIA PaCa-2, inhibition of cell proliferation
Description: MiaPaca-2 Cell Proliferation Assay (1)
Miapaca-2 cells (catalog #CRL-1420) are obtained from the American Type Culture Collect (ATTC, Manassas, VA). Briefly, cells were grown in DMEM supplemented with 10% characterized fetal bovine serum (Invitrogen, Carlsbad, CA), 2.5% New Zealand sourced horse serum and 1% Penicillin/Streptomycin/L-Glutamine at 37° C., 5% CO2, and 95% humidity. Cells are expanded until reaching 70-95% confluency at which point they are subcultured or harvested for assay use. A serial dilution of test compound is dispensed into a 96-well black clear bottom plate in triplicate. Three thousand cells are added per well in 200 μL complete growth medium in the 96-well plate. Plates are incubated for 67-72 hours at 37° C., 5% CO2, and 95% humidity. At the end of the incubation, 40 μL of a 440 μM solution of resazurin (Sigma, St. Louis, MO) in PBS is added to each well of the plate and plates are incubated for an additional 5-6 hours at 37° C., 5% CO2, and 95% humidity. Plates are read on a Synergy2 or equivalent reader (Biotek, Winooski VT) using an excitation of 540 nm and an emission of 600 nm. Data is analyzed using Prism software (GraphPad, San Diego, CA) to calculate IC50 values.

Structure (SMILES)	IC50 (A375 cells) [µM]	IC50 (A-Raf kinase) [µM]	IC50 (WM3928 cells) [µM]	IC50 (Miapaca-2 cells) [µM]
Cc1cc(F)c(NC(=O)NCCC(C)(C)C)cc1-c1cc(OCCO)nc(C2=CCOCC2)c1 [Example 7]	1 to 10	> 1	0.1 to 0.5	1 to 10
Cc1cc(F)c(NC(=O)NCCC(C)(C)C)cc1-c1cc(N2CCOCC2)nc(N2CCOCC2)c1 [Example 10]	0.1 to 0.5	> 1	0.1 to 0.5	
Cc1cc(F)c(NC(=O)NCCC(C)(C)F)cc1-c1cc(OCCO)nc(-c2ccnc3[nH]ncc23)c1 [Example 94]	0.5 to 1	> 1	0.1 to 0.5	1 to 10
Cc1cc(F)c(NC(=O)NCCC(C)(C)F)cc1-c1cc(OCCO)nc(-c2ccnc3[nH]ccc23)c1 [Example 97]	1 to 10	> 1	0.1 to 0.5	1 to 10
Cc1cc(F)c(NC(=O)NCC(C)C)cc1-c1cc(OCCO)nc(-c2ccnc(NC(=O)C3CC3)c2)c1 [Example 99]	1 to 10	0.5 to 1	0.1 to 0.5	1 to 10
Cc1cc(F)c(NC(=O)NCCC(C)(C)F)cc1-c1cccc(-c2ccnc3[nH]ncc23)c1 [Example 100]	1 to 10	> 1	0.5 to 1	1 to 10
Cc1cc(F)c(NC(=O)NC2CC3(COC3)C2)cc1-c1cc(OCCO)nc(-c2ccnc3[nH]ncc23)c1 [Example 101]	1 to 10	> 1	1 to 10	1 to 10
Cc1ncc(NC(=O)NC[C@H](O)C(C)(C)C)cc1-c1ccnc(-c2ccnc(NC(=O)C3CC3)c2)c1 [Example 102]	1 to 10	> 1	1 to 10	1 to 10
COC(=O)Nc1cc(-c2cc(-c3cc(NC(=O)NCCC4(C)CC4)cnc3C)ccn2)ccn1 [Example 103]	1 to 10	> 1	0.5 to 1	1 to 10
COC1(CCNC(=O)Nc2cc(-c3cccc(-c4cc(NC(=O)C5CC5)ncn4)c3)c(C)cc2F)CC1 [Example 104]	1 to 10	0.1 to 0.5	0.1 to 0.5	1 to 10
Cc1cc(F)c(NC(=O)NCCC(F)F)cc1-c1cc(OCCO)nc(-c2ccnc(NC(=O)C3CC3)c2)c1 [Example 105]	1 to 10	0.1 to 0.5	0.5 to 1	1 to 10
Cc1cc(F)c(NC(=O)NCCC(C)C)cc1-c1cc(OCCO)nc(-c2ccnc(NC(=O)C3CC3)c2)c1 [Example 106]	0.1 to 0.5	> 1	≤ 0.1	1 to 10
Cc1ncc(NC(=O)NCCC2(C)CC2)cc1-c1ccnc(-c2ccnc(NC(=O)C3CC3)c2)n1 [Example 107]	1 to 10	0.5 to 1	0.1 to 0.5	1 to 10
COC(C)(C)CCNC(=O)Nc1cc(-c2ccnc(-c3ccnc(NC(=O)C4CC4)c3)n2)c(C)cc1F [Example 108]	0.5 to 1	0.1 to 0.5	0.1 to 0.5	1 to 10
COC(=O)Nc1cc(-c2cc(-c3cc(NC(=O)NCCC(C)(C)C)cnc3C)ccn2)ccn1 [Example 109]	1 to 10	> 1	0.1 to 0.5	1 to 10
Cc1cc(F)c(NC(=O)NCCC2(C)COC2)cc1-c1cc(OCCO)nc(-c2ccnc3[nH]ncc23)c1 [Example 110]	1 to 10	> 1	1 to 10	1 to 10

Structure (SMILES)	IC50 (A375 cells) [µM]	IC50 (A-Raf kinase) [µM]	IC50 (WM3928 cells) [µM]	IC50 (Miapaca-2 cells) [µM]
Cc1cc(F)c(NC(=O)NCC23CC(F)(C2)C3)cc1-c1cc(OCCO)nc(-c2ccnc3[nH]ncc23)c1 [Example 111]	1 to 10	> 1	1 to 10	1 to 10
Cc1ncc(NC(=O)NCCC2(C)CC2)cc1-c1cc(OCCO)nc(-c2ccnc3c2CC(=O)N3)c1 [Example 112]	1 to 10	> 1	1 to 10	1 to 10
Cc1ncc(NC(=O)NCCC2(C)CC2)cc1-c1cc(OCCO)nc(-c2ccnc(NC(=O)C3CC3)c2)c1 [Example 113]	0.1 to 0.5	0.5 to 1	≤ 0.1	1 to 10
Cc1cc(F)c(NC(=O)NCCC(C)(C)F)cc1-c1nccc(-c2ccnc(NC(=O)C3CC3)c2)n1 [Example 114]	1 to 10	0.1 to 0.5	0.5 to 1	1 to 10
COC(=O)Nc1cc(-c2cc(-c3cc(NC(=O)NCCC(C)C)c(F)cc3C)cc(OCCO)n2)ccn1 [Example 115]	0.1 to 0.5	> 1	≤ 0.1	1 to 10
CNC(=O)c1cc(-c2cnnc(-c3cc(NC(=O)NCCC(C)(C)C)c(F)cc3C)c2)ccn1 [Example 119]	1 to 10	> 1	1 to 10	1 to 10
Cc1ncc(NC(=O)NCCC(C)(C)C)cc1-c1cc(-c2ccnc(NC(=O)C3CC3)c2)cnn1 [Example 120]	1 to 10	> 1	1 to 10	1 to 10
Cc1ncc(NC(=O)NC2CC(C)(C)C2)cc1-c1cc(OCCO)nc(-c2ccnc(NC(=O)C3CC3)c2)n1 [Example 144]	0.5 to 1	> 1	0.5 to 1	1 to 10
COC[C@H]1CCN(C(=O)Nc2cc(-c3cc(-c4ccnc(NC(=O)OC)c4)cnn3)c(C)cc2F)C1 [Example 148]	1 to 10	> 1		1 to 10
COC(=O)Nc1cc(-c2cnnc(-c3cc(NC(=O)N4CCC(CC(F)(F)F)C4)c(F)cc3C)c2)ccn1 (stereo not drawn) [Example 150]	1 to 10	> 1	1 to 10	
COC(=O)Nc1cc(-c2cc(-c3cc(NC(=O)NC4CC(C)(C)C4)cnc3C)cc(OCCO)n2)ccn1 [Example 156]	1 to 10	> 1	0.1 to 0.5	
COC(=O)Nc1cc(-c2nc(OCCO)cc(-c3cc(NC(=O)NC4CC(C)(C)C4)c(F)cc3C)n2)ccn1 [Example 158]	≤ 0.1	> 1	≤ 0.1	1 to 10
COC(=O)Nc1cc(-c2nc(OCCO)cc(-c3cc(NC(=O)NCCC(C)(C)F)c(F)cc3C)n2)ccn1 [Example 161]	0.1 to 0.5	> 1	≤ 0.1	
COC(=O)Nc1cc(-c2cc(-c3cc(NC(=O)NCCC(C)(C)F)cnc3C)cc(OCCO)n2)ccn1 [Example 165]	1 to 10	> 1	1 to 10	
COC(=O)Nc1cc(-c2cccc(-c3cc(NC(=O)NCCC4(C)CC4)cnc3C)c2)ncn1 [Example 170]	0.5 to 1	> 1	0.1 to 0.5	
